Experiments:
[1] = tested on: carrageenan-induced footpad edema; assay: Rat carrageenan-induced footpad edema test; assay type: in vivo; details: iv, 1 mg/ml, 5 ml/kg, male Sprague Dawley rats, footpad volume 3 hours after carrageenan, read-out: % inhibition of rat carrageenan-induced footpad edema
Description: Compounds of the present invention were also tested for in vivo activity in a rat paw edema test according to the procedure described in Example 89.
Rat Carrageenan-Induced Footpad Edema Test
Each compound was suspended in 0.3 ml absolute ethanol, 0.1 ml Tween-80 and 2.0 ml Dulbecco's PBS (without calcium or magnesium). To this mixture, 0.1 ml 1N NaOH was added. After solution was complete, additional amounts of PBS were added to adjust the concentration to 1 mg/ml. All comounds remained in solution. Compounds were administered i.v. in a volumne of 5 ml/kg to male Sprague Dawley rats at the same time that edema was induced by injection of 0.05 ml of 1% Type IV carrageenan into the hind footpad. Footpad volume was measured before dosing with compound and 3 hours after dosing with carageenan.

cPLA2 [2] = target: T1, cPLA2 (Homo sapiens, UniProt P47712); assay: Soluble substrate assay (LysoPC); assay type: biochemical; details: NA = inhibitory activity not detected; read-out: IC50 (μM) Lyso PC
T1 sequence (P47712 1-749): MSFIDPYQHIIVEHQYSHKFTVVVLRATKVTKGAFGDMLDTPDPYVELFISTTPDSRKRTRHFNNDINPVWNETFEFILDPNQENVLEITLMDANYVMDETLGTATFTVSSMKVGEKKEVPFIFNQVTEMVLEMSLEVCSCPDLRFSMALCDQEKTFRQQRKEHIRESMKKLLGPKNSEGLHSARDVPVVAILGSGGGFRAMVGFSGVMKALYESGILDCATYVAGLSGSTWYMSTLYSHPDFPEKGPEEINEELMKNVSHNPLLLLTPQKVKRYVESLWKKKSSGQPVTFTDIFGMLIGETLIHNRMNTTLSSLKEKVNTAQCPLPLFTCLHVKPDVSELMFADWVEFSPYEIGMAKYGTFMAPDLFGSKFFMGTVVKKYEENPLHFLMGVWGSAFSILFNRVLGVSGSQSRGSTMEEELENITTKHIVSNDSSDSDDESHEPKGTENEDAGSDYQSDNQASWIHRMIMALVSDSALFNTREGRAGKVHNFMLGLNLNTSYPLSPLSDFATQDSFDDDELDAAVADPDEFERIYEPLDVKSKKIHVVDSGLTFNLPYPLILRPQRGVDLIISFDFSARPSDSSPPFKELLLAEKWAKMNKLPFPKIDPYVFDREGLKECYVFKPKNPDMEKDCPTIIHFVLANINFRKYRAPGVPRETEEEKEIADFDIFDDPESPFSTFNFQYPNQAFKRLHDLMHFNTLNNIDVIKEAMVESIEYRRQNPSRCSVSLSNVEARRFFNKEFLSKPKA
Description: (b) Soluble Substrate Assay (LysoPC)
The lipid was resuspended by vortexing 80 mM Hepes pH 7.5, 1 mM EDTA (1.2×final concentration). A typical assay consisted of lipid suspension (85 μl) to which was added consecutively the inhibitor (5 μl in DMSO) and cPLA2, 200 ng in 80 mM Hepes pH 7.5, 2 mM DTT and […]. This assay was conducted by either the manual assay or automated assay protocol described below.

cPLA2 [3] = target: T1, cPLA2; assay: Coumarine assay (7-hydroxycoumarinyl 6-heptenoate hydrolysis); assay type: biochemical; details: 60 μM 7-hydroxycoumarinyl 6-heptenoate; read-out: IC50 (μM) Coumarine
Description: 7-hydroxycoumarinyl 6-heptenoate was used as a monomeric substrate for cPLA2 as reported previously (Huang, Z. et al., 1994, Analytical Biochemistry 222, 110-115). Inhibitors were mixed with 200 μL assay buffer (80 mM Hepes, pH 7.5, 1 mM EDTA) containing 60 μM 7-hydroxycoumarinyl 6-heptenoate. The reaction was initiated by adding 4 μg cPLA2 in 50 μL assay buffer. Hydrolysis of the 7-hydroxycoumarinyl 6-heptenoate ester was monitored in a fluorometer by exciting at 360 nm and monitoring emission at 460 nm. Enzyme activity is proportional to the increasein emission at 460 nm per minute. In the presence of a cPLA2 inhibitor, the rate of increase is less.

IC50 (cPLA2 [2])	IC50 (cPLA2 [3])	SMILES	inhibition in vivo at 1000 µg/mL, 5 mg/kg [1]
4.4 µM	> 50 µM	O=C(CSCC1Cc2cc(OCc3ccc4ccccc4n3)ccc2N1C(=O)COc1cc(C(F)(F)F)cc(C(F)(F)F)c1)Nc1cc(C(F)(F)F)cc(C(F)(F)F)c1 (stereo not drawn) [Example 50]	11.7%
0.22 µM	10 µM	CCC(C)(C)c1ccc(OCC(=O)N2c3ccc(OCc4ccccc4)cc3CC2CSc2ccccc2C(=O)O)c(C(C)(C)CC)c1 (stereo not drawn) [Example 67, 2-(2-(-5-Benzyloxy-1-(2,4-bis(1,1-dimethy)propyl)phenoxyacetyl)indolinyl)methylthiobenzoic Acid]	17.5%
0.84 µM	19 µM	CCC(C)(C)c1ccc(OCC(=O)N2c3ccc(OCc4ccccc4)cc3CC2CSCC(=O)N(C)c2cc(C(=O)O)ccc2OC)c(C(C)(C)CC)c1 (stereo not drawn) [Example 70, 3-N-Methyl-(2-(-5-benzyloxy-1-(2,4-bis(1,1-dimethy)propyl)phenoxyacetyl)indolinyl)methylthioacetamido-4-methoxybenzoic Acid]	21.7%
